These are literature values, as cited in patent publication US20240383928A1, “PRODUCTION OF DIORGANOTIN DIHALIDES” (priority 2021, published 2024).

Each structure is given as a SMILES string.

As a reminder, the LD50 is the dose at which mortality reaches 50%.

In this series the test system is mice. As to conditions: intraperitoneal injection.

As for `CC[N+](CC)(CC)CC.[Cl-]` [N(C2H5)4Cl], under “time not stated, all animals that survived for 25 minutes recovered”, the median lethal dose (LD50) is 60 mg/kg.
Regarding `C[CH2][Sn]([CH2]C)([CH2]C)[CH2]C` [Sn(C2H5)4], the “2-hr. LD50” value is 660 mg/kg and the “24-hr. LD50” value is 130 mg/kg.
For the compound `[CH3][Sn]([CH3])([CH3])[CH3]` [Sn(CH3)4, tetramethyl tin], the “2-hr. LD50” value is 140 mg/kg and the “24-hr. LD50” value is 18 mg/kg.
